In series [1] the test system is Plutella xylostella. In words: Activity against Plutella xylostella. The class given is in vivo. Conditions: 72 h, 400 ppm spray on young cabbage plants, 3rd instar caterpillars, 3 days, read-out: percentage reduction in the population and in the feeding damage (% activity). How it is done: Young cabbage plants are sprayed with an aqueous emulsion spray mixture comprising 400 ppm of active ingredient and, after the spray coating has dried on, populated with 10 caterpillars (3rd instar) of Plutella xylostella and introduced into a plastic container. 3 days later, the percentage reduction in the population and in the feeding damage (% activity) are determined by comparing the number of dead caterpillars and the feeding damage between the treated and untreated plants.

Series [2] relates to Spodoptera littoralis. In words: Activity against Spodoptera littoralis. Conditions: 72 h, 400 ppm spray on young soya plants, 1st instar caterpillars, 3 days, read-out: percentage reduction in the population and in the feeding damage (% activity). The class given is in vivo. How it is done:
Young soya plants are sprayed with an aqueous emulsion spray mixture comprising 400 ppm of active ingredient and, after the spray coating has dried on, populated with 10 caterpillars (1st instar) of Spodoptera littoralis and introduced into a plastic container. 3 days later, the percentage reduction in the population and in the feeding damage (% activity) are determined by comparing the number of dead caterpillars and the feeding damage between the treated and untreated plants.

Series [3] relates to Diabrotica balteata. In words: Activity against Diabrotica balteata (sprayed maize seedlings). The class given is in vivo. To be noted: 144 h, 400 ppm spray on maize seedlings, 2nd instar larvae, 6 days, read-out: percentage reduction in the population (% activity). On the procedure: Maize seedlings are sprayed with an aqueous emulsion spray mixture comprising 400 ppm of active ingredient and, after the spray coating has dried on, populated with 10 larvae (2nd instar) of Diabrotica balteata and introduced into a plastic container. 6 days later, the percentage reduction in the population (% activity) is determined by comparing the number of dead larvae between the treated and untreated plants.

Structures are written as SMILES. Some results are limits rather than exact numbers.

For `CNC(=O)c1cc2nsnc2c(Cl)c1NC(=O)c1cc(C(F)(F)F)nn1-c1ncccc1Cl` [Compound T20.1.2, 7-chloro-6-{[2-(3-chloro-pyridin-2-yl)-5-trifluoromethyl-2H-pyrazole-3-carbonyl]-amino}-benzo[1,2,5]thiadiazole-5-carboxylic acid methylamide], the inhibition at 400 ppm in series [1] and in series [2] was > 80% in each case.
For orientation: melting point means the temperature of the solid-liquid transition. Regarding `O=C(NCC1CC1)c1cc2[nH]cnc2c(Cl)c1NC(=O)c1cc(C(F)(F)F)nn1-c1ncccc1Cl` [Compound T21.1.14], the melting point lay within 198 to 201 °C. The inhibition at 400 ppm in series [1] is > 80%.
With `CSC1=NC2C=C(C(=O)NCC3CC3)C(NC(=O)c3cc(C(F)(F)F)nn3-c3ncccc3Cl)=C(Cl)C2S1` (centres unmarked) [Compound T94.1.14, 7-chloro-6-{[2-(3-chloro-pyridin-2-yl)-5-trifluoromethyl-2H-pyrazole-3-carbonyl]-amino}-2-methylsulfanyl-3a,7a-dihydro-benzothiazole-5-carboxylic acid cyclopropylmethyl-amide], the melting point fell in the range of 221 to 223 °C. The inhibition at 400 ppm in series [1] was > 80%. In addition, the inhibition at 400 ppm in series [2] was > 80%.
The compound `Cc1nc2cc(C(=O)NCC3CC3)c(NC(=O)c3cc(C(F)(F)F)nn3-c3ncccc3Cl)c(Cl)c2n1C` [Compound T35.1.14] gave a melting point of 233 to 235 °C. For the same compound, the inhibition at 400 ppm in series [2] was > 80%.
Compound `CNC(=O)c1cc2nc(C(F)(F)F)ccc2c(C)c1NC(=O)c1cc(C(F)(F)F)nn1-c1ncccc1Cl` [Compound T8.1.1, 6-{[2-(3-Chloro-pyridin-2-yl)-5-trifluoromethyl-2H-pyrazole-3-carbonyl]-amino}-5-methyl-2-trifluoromethyl-quinoline-7-carboxylic acid methyl amide] registered a melting point of 227 to 230 °C. Besides, the inhibition at 400 ppm in series [1] was > 80%. In addition, the inhibition at 400 ppm in series [2] is > 80%. Further, the inhibition at 400 ppm in series [3] was > 80%.
In turn, `CNC(=O)c1cc2[nH]cnc2c(Cl)c1NC(=O)c1cc(C(F)(F)F)nn1-c1ncccc1Cl` came in with a melting point of 190 to 192 °C.
`Cn1cnc2cc(C(=O)NCC3CC3)c(NC(=O)c3cc(C(F)(F)F)nn3-c3ncccc3Cl)c(Cl)c21` [Compound T22.1.14] gave a melting point of 148 to 151 °C. Also, the inhibition at 400 ppm in series [1] is > 80%. Further, in series [2], the inhibition at 400 ppm is > 80%.
Regarding `Cn1c(C2CC2)nc2cc(C(=O)NCC3CC3)c(NC(=O)c3cc(C(F)(F)F)nn3-c3ncccc3Cl)c(Cl)c21` [Compound T37.1.14], the melting point lay within 233 to 235 °C. Besides, the inhibition at 400 ppm in series [1] is > 80%. Also, the inhibition at 400 ppm in series [2] is > 80%.
Consider `CC(C)NC(=O)c1cc2nc(C3CC3)n(C)c2c(Cl)c1NC(=O)c1cc(C(F)(F)F)nn1-c1ncccc1Cl` [Compound T37.1.8, 7-chloro-6-{[2-(3-chloro-pyridin-2-yl)-5-trifluoromethyl-2H-pyrazole-3carbonyl]-amino}-2-cyclopropyl-1-methyl-1H-benzoimidazole-5-carboxylic acid isopropylamide], for which the melting point was in the range of 242 to 244 °C. For the same compound, the inhibition at 400 ppm in series [1] is > 80%. Further, in series [2], the inhibition at 400 ppm was > 80%.
On to `Cc1nc2cc(C(=O)NC(C)C)c(NC(=O)c3cc(C(F)(F)F)nn3-c3ncccc3Cl)c(Cl)c2nc1C` [Compound T19.1.8, 8-chloro-7-{[2-(3-chloro-pyridin-2-yl)-5-trifluoromethyl-2H-pyrazole-3-carbonyl]-amino}-2,3-dimethyl-quinoxaline-6-carboxylic acid isopropylamide], for which, in series [2], the inhibition at 400 ppm was > 80%.
On to `CNC(=O)c1cc2nc(C(F)(F)F)ccc2c(OC)c1NC(=O)c1cc(C(F)(F)F)nn1-c1ncccc1Cl` [Compound T8.1.121, 6-{[2-(3-Chloro-pyridin-2-yl)-5-trifluoromethyl-2H-pyrazole-3-carbonyl]-amino}-5-methoxy-2-trifluoromethyl-quinoline-7-carboxylic acid methyl amide], for which the inhibition at 400 ppm in series [1] and in series [2] was > 80% throughout.
Turning to `CNC(=O)c1cc2nc(C(F)(F)F)ccc2c(Cl)c1NC(=O)c1cc(C(F)(F)F)nn1-c1ncccc1Cl` [Compound T8.1.2, 5-Chloro-6-{[2-(3-chloro-pyridin-2-yl)-5-trifluoromethyl-2H-pyrazole-3-carbonyl]-amino}-2-trifluoromethyl-quinoline-7-carboxylic acid methyl amide], the melting point lay within 233 to 237 °C. Also, the inhibition at 400 ppm in series [1] was > 80%. For the same compound, the inhibition at 400 ppm in series [2] was > 80%. For the same compound, the inhibition at 400 ppm in series [3] is > 80%.
On to `CNC(=O)c1cc2nc(C(F)(F)F)ccc2cc1NC(=O)c1cc(Br)nn1-c1ncccc1Cl` [Compound T8.1.153, 6-{[5-Bromo-2-(3-chloro-pyridin-2-yl)-2H-pyrazole-3-carbonyl]-amino}-2-trifluoromethyl-quinoline-7-carboxylic acid methyl amide], for which the melting point lay within 120 to 127 °C. In series [1], the inhibition at 400 ppm was > 80%. Besides, the inhibition at 400 ppm in series [2] was > 80%.
`CC(C)NC(=O)c1cc2[nH]cnc2c(Cl)c1NC(=O)c1cc(C(F)(F)F)nn1-c1ncccc1Cl` [Compound T21.1.8, 7-chloro-6-{[2-(3-chloro-pyridin-2-yl)-5-trifluoromethyl-2H-pyrazole-3-carbonyl]-amino}-3H-benzoimidazole-5-carboxylic acid isopropylamide] yielded a melting point of 200 to 203 °C. The inhibition at 400 ppm in series [1] was > 80%. Besides, the inhibition at 400 ppm in series [2] is > 80%.
Regarding `O=C(NCC1CC1)c1cc2nsnc2c(Cl)c1NC(=O)c1cc(C(F)(F)F)nn1-c1ncccc1Cl` [Compound T20.1.14, 7-chloro-6-{[2-(3-chloro-pyridin-2-yl)-5-trifluoromethyl-2H-pyrazole-3-carbonyl]-amino}-benzo[1,2,5]thiadiazole-5-carboxylic acid cyclopropylmethyl-amide], the inhibition at 400 ppm in series [1] and in series [2] was > 80% throughout.
On to `COC1=NC2C=C(C(=O)NCC3CC3)C(NC(=O)c3cc(C(F)(F)F)nn3-c3ncccc3Cl)=C(Cl)C2S1` (centres unmarked) [Compound T115.1.14, 7-chloro-6-{[2-(3-chloro-pyridin-2-yl)-5-trifluoromethyl-2H-pyrazole-3-carbonyl]-amino}-2-methoxy-3a,7a-dihydro-benzothiazole-5-carboxylic acid cyclopropylmethyl-amide], for which the inhibition at 400 ppm in series [1] and in series [2] was > 80% each time.
Turning to `O=C(NCC1CC1)c1cc2nccnc2c(Cl)c1NC(=O)c1cc(C(F)(F)F)nn1-c1ncccc1Cl` [Compound T1.1.14, 8-chloro-7-{[2-(3-chloro-pyridin-2-yl)-5-trifluoromethyl-2H-pyrazole-3-carbonyl]-amino}-quinoxaline-6-carboxylic acid cyclopropylmethyl-amide], the inhibition at 400 ppm in series [1] and in series [2] was > 80% in each case.
As to `CC(C)NC(=O)c1cc2nsnc2c(Cl)c1NC(=O)c1cc(C(F)(F)F)nn1-c1ncccc1Cl` [Compound T20.1.8, 7-chloro-6-{[2-(3-chloro-pyridin-2-yl)-5-trifluoromethyl-2H-pyrazole-3-carbonyl]-amino}-benzo[1,2,5]thiadiazole-5-carboxylic acid isopropylamide], the inhibition at 400 ppm in series [1] and in series [2] was > 80% each time.
